The results in this text go back to US6509328B1, “Glutamate receptor antagonists” (Hoffmann-La Roche Inc., priority 1999, dated 2003).

The term melting point denotes the temperature of the solid-liquid transition.

Where only a bound is given, the exact number is not on record here.

`CC(C)c1ccc2c(c1)NC(=O)CC(c1ccnc(C#N)c1)=N2` [Example 105, 4-(7-Isopropyl-4-oxo-4,5-dihydro-3H-benzo [b][1,4]diazepin-2-yl)-pyridine-2-carbonitrile] registered a melting point of 173 to 178 °C.
For the compound `O=C1CC(c2cccc(Cl)c2)=Nc2ccc(C(=O)c3ccccc3)cc2N1` [Example 35, 8-Benzoyl-4-(3-chloro-phenyl)-1,3-dihydro-benzo [b][1,4]diazepin-2-one], the melting point was 199 to 202 °C (dec.).
On to `NC(=O)c1cccc(C2=Nc3ccc(C#Cc4ccccc4)cc3NC(=O)C2)c1` [Example 148, 3-(4-Oxo-7-phenylethynyl-4,5-dihydro-3H-benzo [b][1,4]diazepin-2-yl)-benzamide], for which the melting point was > 250 °C (dec.).
In the case of `Cc1ccccc1-c1ccc2c(c1)NC(=O)CC(c1sccc1Cl)=N2` [Example 34, 4-(3-Chloro-thiophen-2-yl)-8-o-tolyl-1,3-dihydro-benzo [b][1,4]diazepin-2-one], the melting point is 247 to 248 °C (dec.).
Take `N#Cc1cccc(C2=Nc3ccc(-c4ccccc4)cc3NC(=O)C2)c1` [Example 10, 3-(4-Oxo-7-phenyl-4,5-dihydro-3H-benzo[b][1,4]diazepin-2-yl)-benzonitrile]: the melting point was 238 to 240 °C (dec.).
As for `N#Cc1cccc(C2=Nc3ccc(C#Cc4ccccc4Cl)cc3NC(=O)C2)c1` [Example 4, 3-[7-(2-Chloro-phenylethynyl)-4-oxo-4,5-dihydro-3H-benzo[b][1,4]diazepin-2-yl]-benzonitrile], the melting point was 239 to 240 °C (dec.).
The compound `O=C1CC(c2cccc(-n3ccnn3)c2)=Nc2ccc(C#Cc3ccc(F)cc3)cc2N1` [Example 115, 8-(4-Fluoro-phenylethynyl)-4-(3-[1,2,3]triazol-1-yl-phenyl)-1,3-dihydro-benzo[b][1,4]diazepin-2-one] returned a melting point of 246 to 248 °C.
Turning to `CCc1ccc(-c2ccc3c(c2)NC(=O)CC(c2cccc(C#N)c2)=N3)cc1` [Example 9, 3-[7-(4-Ethyl-phenyl)-4-oxo-4,5-dihydro-3H-benzo[b][1,4]diazepin-2-yl]-benzonitrile], the melting point was 225 to 229 °C (dec.).
As to `N#Cc1cccc(C2=Nc3ccc(C4=CCN(S(=O)(=O)c5ccccc5)CC4)cc3NC(=O)C2)c1` [Example 45, 3-[7-(1-Benzenesulfonyl-1,2,3,6-tetrahydro-pyridin-4-yl)-4-oxo-4,5-dihydro-3H-benzo [b][1,4]diazepin-2-yl]-benzonitrile], the melting point was 92 to 95 °C (dec.).
Compound `Cc1nccn1-c1cccc(C2=Nc3ccc(-c4ccc(F)cc4)cc3NC(=O)C2)c1` [Example 82, 8-(4-Fluoro-phenyl)-4-[3-(2-methyl-imidazol-1-yl)-phenyl]-1,3-dihydro-benzo[b][1,4]diazepin-2-one] gave a melting point of 227 °C.
`O=C1CC(c2sccc2Cl)=Nc2ccc(-c3ccc(F)cc3)cc2N1` [Example 91, 4-(3-Chloro-thiophen-2-yl)-8-(4-fluoro-phenyl)-1,3-dihydro-benzo [b][1,4]diazepin-2-one] had a melting point of 255 to 256 °C.
Turning to `CS(=O)(=O)N1CC=C(c2ccc3c(c2)NC(=O)CC(c2cccc(C#N)c2)=N3)CC1` [Example 46, 3-[7-(1-Methanesulfonyl-1,2,3,6-tetrahydro-pyridin-4-yl)-4-oxo-4,5-dihydro-3H-benzo [b][1,4]diazepin-2-yl]-benzonitrile], the melting point is 211 to 213 °C (dec.).
As for `N#Cc1cccc(C2=Nc3ccc(-c4ccoc4)cc3NC(=O)C2)c1` [Example 14, 3-(7-Furan-3-yl-4-oxo-4,5-dihydro-3H-benzo[b][1,4]diazepin-2-yl)-benzonitrile], the melting point is 228 to 233 °C (dec.).
The compound `N#Cc1ccsc1C1=CC(=O)Nc2cc(-c3ccccc3F)ccc2N1` [Example 84, 2-[7-(2-Fluoro-phenyl)-4-oxo-4,5-dihydro-1H-benzo [b][1,4]diazepin-2-yl]-thiophene-3-carbonitrile] came in with a melting point of 238 to 240 °C.
For `N#Cc1cccc(C2=Nc3ccc(-c4ccccn4)cc3NC(=O)C2)c1` [Example 28, 3-(4-Oxo-7-pyridin-2-yl-4,5-dihydro-3H-benzo [b][1,4]diazepin-2-yl)-benzonitrile], the melting point is 243 to 244 °C (dec.).
For `N#Cc1cccc(C2=Nc3ccc(-c4ccccc4Cl)cc3NC(=O)C2)c1` [Example 33, 3-[7-(2-Chloro-phenyl)-4-oxo-4,5-dihydro-3H-benzo [b][1,4]diazepin-2-yl]-benzonitrile], the melting point was 240 to 244 °C (dec.).
Turning to `Cc1cccc(-c2ccc3c(c2)NC(=O)CC(c2cccc(C#N)c2)=N3)c1` [Example 30, 3-(4-Oxo-7-m-tolyl-4,5-dihydro-3H-benzo [b][1,4]diazepin-2-yl)-benzonitrile], the melting point is 248 to 251 °C (dec.).
To `O=C1CC(c2cccc([N+](=O)[O-])c2)=Nc2ccc(C#Cc3ccccc3)cc2N1` [Example 56, 4-(3-Nitro-phenyl)-8-phenylethynyl-1,3-dihydro-benzo [b][1,4]diazepin-2-one] belongs 228 to 229 °C; to `N#Cc1cccc(C2=Nc3ccc(-c4ccc(Cl)c(Cl)c4)cc3NC(=O)C2)c1` [Example 31, 3-[7-(3,4-Dichloro-phenyl)-4-oxo-4,5-dihydro-3H-benzo [b][1,4]diazepin-2-yl]-benzonitrile], 252 to 255 °C (dec.); to `COCSc1nccn1-c1cccc(C2=Nc3ccc(-c4ccccc4F)cc3NC(=O)C2)c1` [Example 102, 8-(2-Fluoro-phenyl)-4-[3-(2-methoxymethylsulfanyl-imidazol-1-yl)-phenyl]-1,3-dihydro-benzo[b][1,4]diazepin-2-one], 189 to 190 °C.
`O=C1CC(c2cccs2)=Nc2ccc(I)cc2N1` [Example 25, 8-Iodo-4-thiophen-2-yl-1,3-dihydro-benzo[b][1,4]diazepin-2-one] had a melting point of over 260 °C.
In the case of `CC(C)(C)OC(=O)N1CC=C(C#Cc2ccc3c(c2)NC(=O)CC(c2cccc(C#N)c2)=N3)CC1` [Example 139, 4-[2-(3-Cyano-phenyl)-4-oxo-4,5-dihydro-3H-benzo [b][1,4]diazepin-7-ylethynyl]-3,6-dihydro-2H-pyridine-1-carboxylic acid tert.-butyl ester], the melting point is 239 °C.
Consider `N#Cc1cccc(C2=Nc3ccc(-c4cccnc4)cc3NC(=O)C2)c1` [Example 40, 3-(4-Oxo-7-pyridin-3-yl-4,5-dihydro-3H-benzo [b][1,4]diazepin-2-yl)-benzonitrile], for which the melting point was 210 to 214 °C (dec.).
Compound `Cc1cn(-c2nc(C3=Nc4ccc(-c5ccccc5F)cc4NC(=O)C3)cs2)cn1` [Example 106, 8-(2-Fluoro-phenyl)-4-[2-(4-methyl-imidazol-1-yl)-thiazol-4-yl]-1,3-dihydro-benzo[b][1,4]diazepin-2-one] returned a melting point of 229 °C.
Turning to `Cc1nnc(-c2cccc(C3=Nc4ccc(-c5ccc(F)cc5)cc4NC(=O)C3)c2)o1` [Example 165, 8-(4-Fluoro-phenyl)-4-[3-(5-methyl-[1,3,4]oxadiazol-2-yl)-phenyl]-1,3-dihydro-benzo[b][1,4]diazepin-2-one], the melting point was 254 to 256 °C (dec.).
As for `N#Cc1cccc(C2=Nc3ccc(-c4cccc5ccccc45)cc3NC(=O)C2)c1` [Example 20, 3-(7-Naphthalen-1-yl-4-oxo-4,5-dihydro-3H-benzo[b][1,4]diazepin-2-yl)-benzonitrile], the melting point is 240 to 245 °C (dec.).
On to `Cc1cn(-c2cccc(C3=Nc4ccc(-c5ccc(F)cc5)cc4NC(=O)C3)c2)c(C)n1` [Example 89, 4-[3-(2,4-Dimethyl-imidazol-1-yl)-phenyl]-8-(4-fluoro-phenyl)-1,3-dihydro-benzo[b][1,4]diazepin-2-one], for which the melting point is 188 °C.
Take `O=C1CC(c2cccc(-n3cncn3)c2)=Nc2ccc(-c3ccc(F)cc3)cc2N1` [Example 64, 8-(4-Fluoro-phenyl)-4-(3-[1,2,4]triazol-1-yl-phenyl)-1,3-dihydro-benzo [b][1,4]diazepin-2-one]: the melting point fell in the range of 241 to 245 °C.
On to `Cc1cn(-c2cccc(C3=Nc4ccc(C#Cc5ccc(F)cc5)cc4NC(=O)C3)c2)cn1` [Example 78, 8-(4-Fluoro-phenylethynyl)-4-[3-(4-methyl-imidazol-1-yl)-phenyl]-1,3-dihydro-benzo [b][1,4]diazepin-2-one], for which the melting point was found to be 210 °C.
On to `O=C1CC(c2cccc([N+](=O)[O-])c2)=Nc2ccc(-c3ccc(F)cc3)cc2N1` [Example 67, 8-(4-Fluoro-phenyl)-4-(3-nitro-phenyl)-1,3-dihydro-benzo [b][1,4]diazepin-2-one], for which the melting point is 220 to 226 °C (dec.).
The compound `COc1ccc(-c2ccc3c(c2)NC(=O)CC(c2cccc(-n4ccnc4)c2)=N3)cc1` [Example 61, 4-(3-Imidazol-1-yl-phenyl)-8-(4-methoxy-phenyl)-1,3-dihydro-benzo [b][1,4]diazepin-2-one] displayed a melting point of 207 to 208 °C.
Compound `N#Cc1cccc(C2=Nc3ccc(C#CC4=CC(=O)CCC4)cc3NC(=O)C2)c1` [Example 144, 3-[4-Oxo-7-(3-oxo-cyclohex-1-enylethynyl)-4,5-dihydro-3H-benzo [b][1,4]diazepin-2-yl]-benzonitrile] gave a melting point of 110 °C.
`C#Cc1cccc(C2=Nc3ccc(C#Cc4ccccc4)cc3NC(=O)C2)c1` [Example 133, 4-(3-Ethynyl-phenyl)-8-phenylethynyl-1,3-dihydro-benzo[b][1,4]diazepin-2-one]: the melting point is > 250 °C (dec.).
`N#Cc1cccc(C2=Nc3ccc(-c4ccsc4)cc3NC(=O)C2)c1` [Example 7, 3-(4-Oxo-7-thiophen-3-yl-4,5-dihydro-3H-benzo[b][1,4]diazepin-2-yl)-benzonitrile]: the melting point was 238 to 243 °C (dec.).
Take `N#Cc1cccc(C2=Nc3ccc(-c4ccc(-c5ccccc5)cc4)cc3NC(=O)C2)c1` [Example 54, 3-(7-Biphenyl-4-yl-4-oxo-4,5-dihydro-3H-benzo [b][1,4]diazepin-2-yl)-benzonitrile]: the melting point is 251 to 253 °C.
To `N#Cc1cccc(C2=Nc3ccc(C#Cc4ccccn4)cc3NC(=O)C2)c1` [Example 26, 3-(4-Oxo-7-pyridin-2-ylethynyl-4,5-dihydro-3H-benzo[b][1,4]diazepin-2-yl)-benzonitrile] belongs 229 to 231 °C (dec.).
